The values below come from paper PMC11019538, “Biophysics-Guided Lead Discovery of HBV Capsid Assembly Modifiers” (ACS Infectious Diseases, 2024).

The term CC50 denotes the concentration giving 50% cytotoxicity. For orientation: pEC50 means the EC50 on a negative log10 scale, so that one unit is a factor of ten.

Series [1] relates to HBV DNA replication in HepAD38 cells. Briefly: HBV DNA replication inhibition assay in HepAD38 cells (7 days, PCR of supernatant DNA). The series is classed as cell-based, hepatitis B virus. The following applies: HepAD38 cells; for HBV DNA inhibition (%) at 10 µM: first round of selected compounds. Here is the method:
HepAD38 cells were seeded at 50,000 cells/well in collagen-coated 96-well plates. […] The experiment lasted 7 days. On day 7, total DNA was purified from the supernatant using a commercially available kit (DNeasy 96 Blood & Tissue kit, Qiagen). The HBV DNA was amplified in a polymerase chain reaction assay using LightCycler 480 II (Roche), as previously described.[63] All samples were tested in duplicate.

Series [2] deals with African green monkey kidney (Vero) cells. The experiment in a line: MTT cytotoxicity, Vero cells. It is filed as cell-based. The following applies: Vero cells. Here is the method: (§1) Human peripheral blood mononuclear (PBM), T lymphoblast CEM-CCRF (herein referred to as CEM cells), African green monkey kidney (Vero), or human liver carcinoma (HepG2) cells were tested via MTT assay using the CellTiter 96 Non-Radioactive Cell Proliferation (Promega) kit as previously described.[63]

The subject of series [3] is T lymphoblast CEM-CCRF (CEM) cells. Briefly: MTT cytotoxicity, CEM cells. It is filed as cell-based, human. Here is the method: as §1
The test system of series [4] is human liver carcinoma (HepG2) cells. The experiment in a line: MTT cytotoxicity, HepG2 cells. The series is classed as cell-based. Conditions: HepG2 cells. Here is the method: as §1
Series [5] deals with human peripheral blood mononuclear (PBM) cells. Briefly: MTT cytotoxicity, PBM cells. It is filed as cell-based. Here is the method: as §1
[6] abbreviates: trial 1, read-out: EC50, trial 1.
Where [7] appears, read: trial 2, read-out: EC50, trial 2.

pEC50: −log10 of the molar value. Like-named read-outs stand apart in the source and are kept apart here.

Take `Nc1ccn([C@@H]2CS[C@H](CO)O2)c(=O)n1` [3TC, reference compound]: the “HBV DNA inhibition (%) at 10 µM” value in series [1] was 97%. Besides, the “% HBV DNA Inh. at 10 μM, trial 1” value in series [1] (trial 1) was determined as 82%.
Take `C=CC1CN2CCC1CC2C(O)c1ccnc2ccc(OC)cc12` (centres unmarked) [GT-1]: in series [1], the “HBV DNA inhibition (%) at 10 µM” value is under 1%.
Consider `CC(CC(C#N)(c1ccccc1)c1ccccc1)N1CCCCC1` (centres unmarked) [GT-2], for which the half-maximal cytotoxic concentration (CC50) is over 100 µM in series [2], 16.1 µM in series [3], 26.4 µM in series [4] and 85.3 µM in series [5]. Also, the “HBV DNA inhibition (%) at 10 µM” value in series [1] was under 1%.
The matching figures for `Clc1ccccc1C=Cc1ccnc2ccccc12` [GT-3]: 27 µM, 15.4 µM, 51.2 µM, 34 µM and 40.4%.
Take `CC(O)(c1ccccc1)C(c1ccccc1)C1CCCCN1` (centres unmarked) [GT-4]: the 50% cytotoxic concentration (CC50) in series [2], in series [3], in series [4] and in series [5] was over 100 µM each time. For the same compound, the “HBV DNA inhibition (%) at 10 µM” value in series [1] is recorded as under 1%.
On to `Cc1c(CCN)ccc2c1[nH]c1ccccc12` [GT-6], for which the CC50 in series [2] worked out at 42.6 µM; in series [3] it was 18.7 µM; in series [4] it was 14.9 µM; in series [5], 47.7 µM. In series [1], the “HBV DNA inhibition (%) at 10 µM” value is 27.2%.
For the compound `Cc1nc(-c2ccccc2)c(Cc2ccccc2O)c(=O)[nH]1` [GT-7], the cytotoxic concentration (CC50) in series [2], in series [3], in series [4] and in series [5] was over 100 µM each time. Further, the “HBV DNA inhibition (%) at 10 µM” value in series [1] was under 1%.
Consider `O=C(CC1C=Cc2ccccc2N1C(=O)c1ccccc1)c1ccccc1` (centres unmarked) [GT-8], for which the half-maximal cytotoxic concentration (CC50) in series [2], in series [3], in series [4] and in series [5] was over 100 µM throughout. Further, the “HBV DNA inhibition (%) at 10 µM” value in series [1] is recorded as under 1%.
As for `Cc1ccc(CC#N)c(-c2c(CC#N)ccc(C)c2C)c1C` [GT-9], the CC50 was over 100 µM in series [2], over 100 µM in series [3], 55.3 µM in series [4] and over 100 µM in series [5]. For the same compound, in series [1], the “HBV DNA inhibition (%) at 10 µM” value was 34.6%.
Regarding `CCC(CO)Nc1nc2ccc(Cl)cc2c2ccccc12` (centres unmarked) [GT-10], the cytotoxic concentration (CC50) stood at 14.4 µM in series [2], 15.2 µM in series [3], 12.9 µM in series [4] and 18.2 µM in series [5]. For the same compound, the “HBV DNA inhibition (%) at 10 µM” value in series [1] is given as under 1%.
For `N#CC(c1ccccc1)C(C(Cc1ccccc1)=NO)c1ccccc1` (centres unmarked) [GT-11], the cytotoxic concentration (CC50) turned out to be 18.9 µM in series [2], 13.3 µM in series [3], 31.6 µM in series [4] and 63.9 µM in series [5]. In series [1], the “HBV DNA inhibition (%) at 10 µM” value is under 1%.
The matching figures for `NCc1cccc(Oc2ccccc2)c1` [GT-12]: over 100 µM, 17 µM, over 100 µM, over 100 µM and under 1%.
As to `O=C(NCCc1ccccc1)c1cccnc1` [GT-13], the 50% cytotoxic concentration (CC50) in series [2], in series [3], in series [4] and in series [5] was over 100 µM in each case. Besides, the “HBV DNA inhibition (%) at 10 µM” value in series [1] is listed as under 1%.
Turning to `Fc1ccccc1CNCc1ccccn1` [GT-14], the CC50 in series [2], in series [3], in series [4] and in series [5] was over 100 µM each time. Moreover, in series [1], the “HBV DNA inhibition (%) at 10 µM” value is under 1%.
On to `O=C(CCc1ccccc1)Nc1cccnc1` [GT-15], for which the CC50 in series [2], in series [3], in series [4] and in series [5] was over 100 µM in each case. Further, the “HBV DNA inhibition (%) at 10 µM” value in series [1] is recorded as under 1%.
As to `O=C(OCc1ccccc1)c1cccnc1` [GT-16], the cytotoxic concentration (CC50) in series [2], in series [3], in series [4] and in series [5] was over 100 µM throughout. In series [1], the “HBV DNA inhibition (%) at 10 µM” value stood at 1.7%.
In the case of `NCc1ccc(N2CCC(CO)CC2)cc1` [GT-17], the CC50 in series [2], in series [3], in series [4] and in series [5] was over 100 µM in each case. For the same compound, the “HBV DNA inhibition (%) at 10 µM” value in series [1] is under 1%.
On to `CC(NC(=O)c1cccnc1)c1ccccc1` (centres unmarked) [GT-18], for which the CC50 in series [2], in series [3], in series [4] and in series [5] was over 100 µM throughout. The “HBV DNA inhibition (%) at 10 µM” value in series [1] is reported as under 1%.
Consider `NCc1ccc(-c2ccccc2F)o1` [GT-19], for which the 50% cytotoxic concentration (CC50) in series [2], in series [3], in series [4] and in series [5] was over 100 µM each time. Besides, the “HBV DNA inhibition (%) at 10 µM” value in series [1] is under 1%.
Turning to `Cc1ccc(C(N)c2ccncc2)cc1` (centres unmarked) [GT-20], the CC50 in series [2], in series [3], in series [4] and in series [5] was over 100 µM in each case. Further, the “HBV DNA inhibition (%) at 10 µM” value in series [1] is reported as under 1%.
In the case of `NCc1cccc(Oc2ccccc2)c1` [GT-21], the CC50 in series [2] is 49.6 µM; in series [3], 18.2 µM; in series [4], over 100 µM; in series [5], over 100 µM. Moreover, the “HBV DNA inhibition (%) at 10 µM” value in series [1] is reported as under 1%.
Take `NCc1ccc(F)c(COC2CCCC2)c1` [GT-22]: the 50% cytotoxic concentration (CC50) in series [2] was 88.6 µM; in series [3], 36.3 µM; in series [4] it was over 100 µM; in series [5], over 100 µM. Also, the “HBV DNA inhibition (%) at 10 µM” value in series [1] is given as under 1%.
In the case of `O=C(NCc1cccnc1)C1CCNCC1` [GT-23], the CC50 in series [2], in series [3], in series [4] and in series [5] was over 100 µM throughout. Further, the “HBV DNA inhibition (%) at 10 µM” value in series [1] is reported as under 1%.
For the compound `NCc1cccc(-c2ccccn2)c1` [GT-24], the CC50 in series [2] was over 100 µM; in series [3] it was 11.3 µM; in series [4], over 100 µM; in series [5], over 100 µM. In addition, the “HBV DNA inhibition (%) at 10 µM” value in series [1] is given as under 1%.
In the case of `CC(NC(=O)c1ccccc1)c1ccccn1` (centres unmarked) [GT-25], the CC50 in series [2], in series [3], in series [4] and in series [5] was over 100 µM each time. In addition, in series [1], the “HBV DNA inhibition (%) at 10 µM” value is under 1%.
For the compound `O=C(NCCn1ccnc1)c1ccccn1` [GT-26], the cytotoxic concentration (CC50) in series [2], in series [3], in series [4] and in series [5] was over 100 µM each time. Further, the “HBV DNA inhibition (%) at 10 µM” value in series [1] was under 1%.
Consider `Cc1cc(-c2ccccc2)nc(C#N)c1C#N` [GT-27], for which the cytotoxic concentration (CC50) in series [2] came to 27.3 µM; in series [3] it was 4 µM; in series [4], 41.7 µM; in series [5] it was 14.7 µM. In addition, in series [1], the “HBV DNA inhibition (%) at 10 µM” value is under 1%.
Regarding `CNc1cc(C#N)nc(-c2ccccc2)n1` [GT-28], the CC50 in series [2] was over 100 µM; in series [3] it was 63.8 µM; in series [4], over 100 µM; in series [5], 24 µM. In addition, the “HBV DNA inhibition (%) at 10 µM” value in series [1] is given as under 1%.
With `CC(N)c1ccc(-c2ccc(F)cc2)cc1` (centres unmarked) [GT-29], the half-maximal cytotoxic concentration (CC50) in series [2] came out at 21 µM; in series [3], 35.7 µM; in series [4], 12.3 µM; in series [5], 25 µM. In addition, the “HBV DNA inhibition (%) at 10 µM” value in series [1] is reported as under 1%.
For `CCN1CCN(C(=O)c2ccc(-c3nc4ccccc4nc3-c3ccccc3)cc2)CC1` [GT-30], the cytotoxic concentration (CC50) in series [2] came out at 81 µM; in series [3], 32 µM; in series [4], 34 µM; in series [5] it was 60 µM. For the same compound, in series [1] (trial 1), the “% HBV DNA Inh. at 10 μM, trial 1” value is under 1%. Further, the “% HBV DNA Inh. at 10 μM, trial 2” value in series [1] (trial 2) is under 1%. The pEC50 in series [1] (setting [6]) and in series [1] (setting [7]) was under 5.00 throughout.
As to `COc1ccc(-c2cc(C(=O)Oc3cccc(-c4cnc5ccccc5n4)c3)c3ccccc3n2)cc1` [GT-31], the 50% cytotoxic concentration (CC50) in series [2] is 97 µM; in series [3], over 100 µM; in series [4] it was 42 µM; in series [5] it was 86 µM. Further, the “% cytotoxicity at 100 µM (MTT), CEM cells” value in series [3] is 36%. In addition, in series [1] (trial 1), the “% HBV DNA Inh. at 10 μM, trial 1” value is under 1%. For the same compound, the “% HBV DNA Inh. at 10 μM, trial 2” value in series [1] (trial 2) was under 1%. In addition, the pEC50 in series [1] (setting [6]) and in series [1] (setting [7]) was under 5.00 in each case.
`c1ccc(Cn2cc(-c3cccnc3)c(-c3nc(-c4ccccc4)c(-c4ccccc4)[nH]3)n2)cc1` [GT-34]: the CC50 in series [2] turned out to be 14 µM; in series [3], 11 µM; in series [4], 16 µM; in series [5], 59 µM. Also, the “% HBV DNA Inh. at 10 μM, trial 1” value in series [1] (trial 1) is under 1%. For the same compound, the “% HBV DNA Inh. at 10 μM, trial 2” value in series [1] (trial 2) is under 1%. In addition, the pEC50 in series [1] (setting [6]) and in series [1] (setting [7]) was under 5.00 throughout.
Turning to `COc1cc(OC)c2cc(-c3nc4ccccc4[nH]3)c(-c3ccc(C)cc3)nc2c1` [GT-35], the CC50 is 42 µM in series [2], over 100 µM in series [3], 63 µM in series [4] and over 100 µM in series [5]. For the same compound, in series [3], the “% cytotoxicity at 100 µM (MTT), CEM cells” value came out at 49%. Also, the “% HBV DNA Inh. at 10 μM, trial 1” value in series [1] (trial 1) was 36%. The “% HBV DNA Inh. at 10 μM, trial 2” value in series [1] (trial 2) turned out to be 36%. Moreover, the negative-log EC50 (pEC50) in series [1] (setting [6]) and in series [1] (setting [7]) was under 5.00 throughout. For the same compound, in series [5] (100 µM), the “percent cytotoxicity (cell growth inhibition) at 100 µM” value stood at 14%.
